From patent publication US8741934B2, “Inhibitors of ion channels” (Pfizer Limited, priority 2007, dated 2014)

These molecules were tested against T1, hSCN3A sodium channels (Homo sapiens, UniProt Q9NY46) (assay: hSCN3A electrophysiology, whole-cell patch-clamp or PatchXpress 7000, estimated IC-50 (Table B)). Settings: estimated IC-50; hSCN3A cells, whole-cell patch-clamp or PatchXpress 7000; read-out: SCN3A EIC-50.
T1 construct: expressed in transfected cells
Type: cell-based
Procedure, shortened: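 A 20 msec test pulse to 0 mV followed an 8 sec conditioning prepulse at each cell's measured V1/2. Room-temperature (22-24° C) recordings on HEK cells stably expressing the channel, conventional or PatchXpress.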

T1 sequence (Q9NY46 whole entry): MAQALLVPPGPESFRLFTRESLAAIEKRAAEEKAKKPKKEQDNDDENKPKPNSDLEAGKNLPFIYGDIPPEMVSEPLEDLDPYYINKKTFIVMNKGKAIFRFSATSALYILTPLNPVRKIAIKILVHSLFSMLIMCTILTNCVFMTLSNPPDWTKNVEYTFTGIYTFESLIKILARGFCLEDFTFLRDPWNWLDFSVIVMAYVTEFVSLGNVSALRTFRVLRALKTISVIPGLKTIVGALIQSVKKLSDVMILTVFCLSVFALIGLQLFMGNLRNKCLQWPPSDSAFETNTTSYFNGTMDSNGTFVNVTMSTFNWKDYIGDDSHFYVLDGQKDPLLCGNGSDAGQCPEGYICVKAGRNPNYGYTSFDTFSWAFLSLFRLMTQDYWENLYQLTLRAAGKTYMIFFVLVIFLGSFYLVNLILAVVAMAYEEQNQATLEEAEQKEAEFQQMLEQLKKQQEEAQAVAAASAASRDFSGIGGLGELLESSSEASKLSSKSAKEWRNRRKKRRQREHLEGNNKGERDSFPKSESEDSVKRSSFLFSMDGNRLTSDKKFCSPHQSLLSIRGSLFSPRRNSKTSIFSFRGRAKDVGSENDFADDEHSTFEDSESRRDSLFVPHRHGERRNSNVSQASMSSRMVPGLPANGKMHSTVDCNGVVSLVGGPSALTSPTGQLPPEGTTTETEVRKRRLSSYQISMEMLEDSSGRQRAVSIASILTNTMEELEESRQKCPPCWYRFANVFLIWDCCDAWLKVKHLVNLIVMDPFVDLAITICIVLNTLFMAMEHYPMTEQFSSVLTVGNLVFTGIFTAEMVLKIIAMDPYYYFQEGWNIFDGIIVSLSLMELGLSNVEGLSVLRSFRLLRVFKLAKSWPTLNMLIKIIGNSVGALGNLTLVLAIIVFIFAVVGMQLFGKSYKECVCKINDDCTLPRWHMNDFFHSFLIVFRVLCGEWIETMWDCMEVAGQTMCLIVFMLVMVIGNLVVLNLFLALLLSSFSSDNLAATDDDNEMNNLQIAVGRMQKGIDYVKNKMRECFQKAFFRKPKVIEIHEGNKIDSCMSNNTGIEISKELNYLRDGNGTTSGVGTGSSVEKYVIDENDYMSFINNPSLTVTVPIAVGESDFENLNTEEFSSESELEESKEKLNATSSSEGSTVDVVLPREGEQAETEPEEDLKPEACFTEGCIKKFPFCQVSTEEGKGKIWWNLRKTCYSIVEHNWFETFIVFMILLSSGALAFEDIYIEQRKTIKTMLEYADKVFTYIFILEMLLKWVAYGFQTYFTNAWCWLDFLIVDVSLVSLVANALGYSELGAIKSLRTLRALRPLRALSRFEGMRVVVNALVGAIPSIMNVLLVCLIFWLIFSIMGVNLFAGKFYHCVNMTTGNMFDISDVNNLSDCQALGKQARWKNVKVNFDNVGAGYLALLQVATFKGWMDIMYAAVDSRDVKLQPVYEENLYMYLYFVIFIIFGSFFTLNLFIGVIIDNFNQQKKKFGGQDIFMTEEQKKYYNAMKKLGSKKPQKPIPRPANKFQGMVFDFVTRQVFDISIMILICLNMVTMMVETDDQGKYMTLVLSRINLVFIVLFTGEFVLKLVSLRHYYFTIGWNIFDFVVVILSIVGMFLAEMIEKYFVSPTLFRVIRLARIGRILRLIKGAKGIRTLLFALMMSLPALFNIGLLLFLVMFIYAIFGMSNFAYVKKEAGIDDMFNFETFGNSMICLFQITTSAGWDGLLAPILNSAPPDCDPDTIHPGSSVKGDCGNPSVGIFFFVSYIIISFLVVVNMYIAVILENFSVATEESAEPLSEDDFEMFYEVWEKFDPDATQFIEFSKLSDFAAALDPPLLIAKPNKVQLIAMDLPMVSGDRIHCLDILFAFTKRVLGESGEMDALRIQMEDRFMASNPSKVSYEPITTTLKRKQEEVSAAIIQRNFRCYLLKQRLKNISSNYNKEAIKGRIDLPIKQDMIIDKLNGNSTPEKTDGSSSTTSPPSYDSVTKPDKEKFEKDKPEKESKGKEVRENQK

Structure (SMILES) | IC50 [nM]
O=C(Nc1ccc2c(n1)CCC2)c1ccc(S(=O)(=O)Nc2nccs2)cc1 [Example 172, N-(6,7-dihydro-5H-cyclopenta[b]pyridin-2-yl)-4-[(1,3-thiazol-2-ylamino)sulfonyl]benzamide] | 6520
O=C(NCc1ccc(F)c(OC(F)(F)F)c1)c1ccc(S(=O)(=O)Nc2nccs2)cc1F [Example 331, 2-Fluoro-N-[4-fluoro-3-(trifluoromethoxy)benzyl]-4-[(1,3-thiazol-2-ylamino)sulfonyl] benzamide] | 900
C[C@H]1CN(C(=O)c2ccc(S(=O)(=O)Nc3nccs3)cc2)C[C@@H]1COc1ccccc1 [Example 49, 4-{[(3R,4R)-3-methyl-4-(phenoxymethyl)pyrrolidin-1-yl]carbonyl}-N-1,3-thiazol-2-ylbenzenesulfonamide] | 1150
O=C(NCc1ccc(F)c(OC(F)(F)F)c1)c1ccc(S(=O)(=O)Nc2ncc(Cl)s2)c(Cl)c1 [Example 367, 3-Chloro-4-{[(5-chloro-1,3-thiazol-2-yl)amino]sulfonyl}-N-[4-fluoro-3-(trifluoromethoxy)benzyl]benzamide] | 1510
O=C(NCc1ccc(C(F)(F)F)cc1)c1ccc(S(=O)(=O)Nc2ccon2)cc1 [Example 7, 4-[(Isoxazol-3-ylamino)sulfonyl]-N-[4-(trifluoromethyl)benzyl]benzamide] | 5870
O=C(NCc1ccc(Cl)c(Cl)c1)c1ccc(S(=O)(=O)Nc2ncc(Cl)s2)c(Cl)c1 [Example 368, 3-Chloro-4-{[(5-chloro-1,3-thiazol-2-yl)amino]sulfonyl}-N-(3,4-dichlorobenzyl) benzamide] | 400
O=C(NCc1ccc(C(F)(F)F)c(Cl)c1)c1ccc(S(=O)(=O)Nc2ncc(Cl)s2)cc1 [Example 30, 4-{[(5-Chloro-1,3-thiazol-2-yl)amino]sulfonyl}-N-[3-chloro-4-(trifluoromethyl)benzyl]benzamide] | 30
O=C(NCc1ccc(Cl)c(Cl)c1)c1ccc(S(=O)(=O)Nc2nccs2)c(F)c1 [Example 297, N-(3,4-dichlorobenzyl)-3-fluoro-4-[(1,3-thiazol-2-ylamino)sulfonyl]benzamide] | 60
O=C(NCc1ccc(C(F)(F)F)cc1)c1ccc(S(=O)(=O)Nc2nncs2)cc1 [Example 21, 4-[(1,3,4-Thiadiazol-2-ylamino)sulfonyl]-N-[4-(trifluoromethyl)benzyl]benzamide] | 1970
O=C(c1ccc(S(=O)(=O)Nc2nccs2)cc1)N1CCCCC1c1ccccc1 (stereo not shown) [Example 239, 4-[(2-Phenylpiperidin-1-yl)carbonyl]-N-1,3-thiazol-2-yl-benzenesulfonamide] | 2970
O=C(NCc1cccc(OC(F)(F)F)c1)c1ccc(S(=O)(=O)Nc2nccs2)c(F)c1 [Example 296, 3-Fluoro-4-[(1,3-thiazol-2-ylamino)sulfonyl]-N-[3-(trifluoromethoxy)benzyl]benzamide] | 190
O=C(Nc1cnn(Cc2ccc(Cl)cc2)c1)c1ccc(S(=O)(=O)Nc2ncc(Cl)s2)c(F)c1 [Example 381, N-[1-(4-chlorobenzyl)-1H-pyrazol-4-yl]-4-{[(5-chloro-1,3-thiazol-2-yl)amino]sulfonyl}-3-fluorobenzamide] | 120
Cc1cc(NC(=O)c2ccc(S(=O)(=O)Nc3nccs3)cc2)cnc1C [Example 175, N-(5,6-dimethylpyridin-3-yl)-4-[(1,3-thiazol-2-ylamino)sulfonyl]benzamide] | 4050
Cc1cc(NC(=O)c2ccc(S(=O)(=O)Nc3nccs3)cc2)n(-c2ccccc2)n1 [Example 307, N-(3-methyl-1-phenyl-1H-pyrazol-5-yl)-4-[(1,3-thiazol-2-ylamino)sulfonyl]benzamide] | 23700
O=C(NC(c1cccc(C(F)(F)F)c1F)C1CC1)c1ccc(S(=O)(=O)Nc2nccs2)cc1 (stereo not shown) [Example 119, N-{cyclopropyl[2-fluoro-3-(trifluoromethyl)phenyl]methyl}-4-[(1,3-thiazol-2-ylamino)sulfonyl]benzamide] | 1290
CC(CNC(=O)c1ccc(S(=O)(=O)Nc2nccs2)cc1)c1ccc(Cl)cc1 (stereo not shown) [Example 133, N-[2-(4-chlorophenyl)propyl]-4-[(1,3-thiazol-2-ylamino)sulfonyl]benzamide] | 1150
O=C(NC1(c2ccc(Cl)cc2)CC1)c1ccc(S(=O)(=O)Nc2nccs2)cc1 [Example 139, N-[1-(4-chlorophenyl)cyclopropyl]-4-[(1,3-thiazol-2-ylamino)sulfonyl]benzamide] | 1660
O=C(NCc1ccccc1-c1ccccc1)c1ccc(S(=O)(=O)Nc2nccs2)cc1 [Example 415, N-(biphenyl-2-ylmethyl)-4-[(1,3-thiazol-2-ylamino)sulfonyl] benzamide] | 380
O=C(NCc1ccc(OC(F)(F)F)c(F)c1)c1ccc(S(=O)(=O)Nc2nccs2)cc1 [Example 394, N-[3-fluoro-4-(trifluoromethoxy)benzyl]-4-[(1,3-thiazol-2-ylamino)sulfonyl]benzamide] | 90
O=C(NCCNc1ccc(Cl)cc1)c1ccc(S(=O)(=O)Nc2nccs2)cc1 [Example 385, N-{2-[(4-chlorophenyl)amino]ethyl}-4-[(1,3-thiazol-2-ylamino)sulfonyl]benzamide] | 780
O=C(NC1CCc2ccccc21)c1ccc(S(=O)(=O)Nc2nccs2)cc1 (stereo not shown) [Example 158, N-(2,3-dihydro-1H-inden-1-yl)-4-[(1,3-thiazol-2-ylamino)sulfonyl]benzamide] | 2390
Cc1ccc(CNC(=O)c2ccc(S(=O)(=O)Nc3nccs3)cc2)cc1Cl [Example 400, N-(3-chloro-4-methylbenzyl)-4-[(1,3-thiazol-2-ylamino)sulfonyl] benzamide] | 70
N#Cc1cc(S(=O)(=O)Nc2ncc(Cl)s2)ccc1C(=O)NCc1ccc(C(F)(F)F)cc1 [Example 347, 4-{[(5-Chloro-1,3-thiazol-2-yl)amino]sulfonyl}-2-cyano-N-[4-(trifluoromethyl)benzyl]benzamide] | 1620
CCc1nsc(NS(=O)(=O)c2ccc(C(=O)NCc3ccc(C(F)(F)F)cc3)cc2)n1 [Example 19, 4-{[(3-Ethyl-1,2,4-thiadiazol-5-yl)amino]sulfonyl}-N-[4-(trifluoromethyl)benzyl]benzamide] | 13800
O=C(NCc1ccc(C(F)(F)F)c(F)c1)c1ccc(S(=O)(=O)Nc2ncc(Cl)s2)c(Cl)c1 [Example 366, 3-Chloro-4-{[(5-chloro-1,3-thiazol-2-yl)amino]sulfonyl}-N-[3-fluoro-4-(trifluoromethyl)benzyl] benzamide] | 730
O=C(NCc1ccc(Cl)cc1C(F)(F)F)c1ccc(S(=O)(=O)Nc2nccs2)cc1 [Example 406, N-[4-chloro-2-(trifluoromethyl)benzyl]-4-[(1,3-thiazol-2-ylamino)sulfonyl] benzamide] | 260
O=C(c1ccc(S(=O)(=O)Nc2nccs2)cc1)N1CCO[C@H]2Cc3ccccc3[C@H]21 [Example 52, 4-[(4aR,9aS)-2,3,9,9a-tetrahydroindeno[2,1-b][1,4]oxazin-4(4aH)-ylcarbonyl]-N-1,3-thiazol-2-ylbenzenesulfonamide] | 2910
O=C(NCc1cccc(C(F)(F)F)c1F)c1ccc(S(=O)(=O)Nc2ncc(Cl)s2)cc1 [Example 40, 4-{[(5-Chloro-1,3-thiazol-2-yl)amino]sulfonyl}-N-[2-fluoro-3-(trifluoromethyl)benzyl]benzamide] | 210
